Assay results published in PMC9737911 (2022).
Blank lines part the entries; values can stand above or below the compound they belong to.

Experiments:
[1] = tested on: OT-Bea-4bp (DNA, aptamer) CGATCGGGTGTGGGTGGCGTAAAGGGAGCATCG; assay: fluorescence quenching (FAM/BHQ1 beacon), single concentration; conditions: 120 mM NaCl, 2 mM CaCl2; highest concentration tested 200 nM; no quenching
[2] = tested on: OT-Bea-5bp (DNA, aptamer) GCGATCGGGTGTGGGTGGCGTAAAGGGAGCATCGC; assay: as above; conditions: 120 mM NaCl, 20 mM CaCl2; 20 mM Tris-HCl pH 7.5; 50 nM probe, 500 nM OTA; small signal change
[3] = tested on: OT-Bea-4bp (DNA, aptamer) CGATCGGGTGTGGGTGGCGTAAAGGGAGCATCG; assay: fluorescence quenching titration (FAM/BHQ1 beacon); conditions: 120 mM NaCl, 2 mM CaCl2; 20 mM Tris-HCl pH 8.5, 0.1% Tween 20, room temperature, 50 nM probe
[4] = tested on: OT-Bea-2bp (DNA, aptamer) ATCGGGTGTGGGTGGCGTAAAGGGAGCAT; assay: fluorescence quenching (FAM/BHQ1 beacon), single concentration; conditions: 120 mM NaCl, 20 mM CaCl2; 20 mM Tris-HCl pH 7.5; 50 nM probe, 500 nM OTA; 37% quenching
[5] = tested on: OT-Bea-1bp (DNA, aptamer) TCGGGTGTGGGTGGCGTAAAGGGAGCA; assay: as above; conditions: 120 mM NaCl, 20 mM CaCl2; 20 mM Tris-HCl pH 7.5; 50 nM probe, 500 nM OTA; negligible fluorescence change
[6] = tested on: OT-Bea-3bp (DNA, aptamer) GATCGGGTGTGGGTGGCGTAAAGGGAGCATC; assay: as above; conditions: 120 mM NaCl, 20 mM CaCl2; 20 mM Tris-HCl pH 7.5; 50 nM probe, 500 nM OTA; 41% quenching

SMILES: C[C@@H]1Cc2c(Cl)cc(C(=O)N[C@@H](Cc3ccccc3)C(=O)O)c(O)c2C(=O)O1
binding [2]: yes | Kd [3]: 16 ± 2 nM | binding [4]: yes | binding [5]: weak | binding [6]: yes

SMILES: C[C@H]1CCCC(=O)CCC/C=C/c2cc(O)cc(O)c2C(=O)O1
binding [1]: no

The remaining lines, values ahead:

binding [1]: no
SMILES: CCCC[C@@H](C)[C@@H](OC(=O)C[C@@H](CC(=O)O)C(=O)O)[C@H](C[C@@H](C)CCCCCC[C@@H](O)C[C@H](O)[C@H](C)N)OC(=O)C[C@@H](CC(=O)O)C(=O)O

binding [1]: no
SMILES: CCCC[C@@H](C)[C@@H](OC(=O)C[C@@H](CC(=O)O)C(=O)O)[C@H](C[C@@H](C)C[C@H](O)CCCC[C@@H](O)C[C@H](O)[C@H](C)N)OC(=O)C[C@@H](CC(=O)O)C(=O)O

binding [1]: no
SMILES: C[C@@H]1Cc2ccc(C(=O)N[C@@H](Cc3ccccc3)C(=O)O)c(O)c2C(=O)O1
